Laboratory results reported in EP0270316A2, “Topical compositions comprising 1-substituted imidazoles and NSAIDs for treatment of acne” (PFIZER INC., priority 1986, dated 1988).
Values after ≈ are worked out from the molar mass of the structure shown.

Key:
P. acnes = assay: microbe, parasite or virus in culture; conditions: Cutibacterium acnes, read-out: average minimum inhibitory concentration (MIC)
[1] = human skin treated with radiolabeled tioconazole; frozen section autoradiography
Source text: This property is readily measurable by methods known to those skilled in the art such as, for example, skin layer analysis which measures the amount of radiolabeled drug, e.g. tioconazole, in human skin treated with compositions containing the drug. [[…] et al., Brit. J. Dermatol. 115, Suppl. 31, 36-40 (1986)].

With `Clc1ccc(C(Cn2ccnc2)OCc2ccsc2Cl)c(Cl)c1` (centres unmarked) [Tioconazole, 1-[2-[(2-chloro-3-thienyl)methoxy]-2-(2,4-dichlorophenyl)ethyl]-1H-imidazole] the MIC (P. acnes) was 5 µg/mL (≈ 12.9 µM) and the localization in skin [1] was “localized in the sebaceous follicle”.
